From ChEMBL document CHEMBL3769362, “Thermodynamic profiling of inhibitors of Nrf2:Keap1 interactions” (Bioorg Med Chem Lett, 2016)
Active and inactive are the calls of the source. No cut-off for these calls is given here.

Key:
[1] = molecular target: T1, Keap1/Nrf2 (Homo sapiens) (UniProt Q16236+Q14145); assay: Inhibition of Nrf2:Keap1 interaction (unknown origin) assessed as induction of negative TdeltaS values by MR121 dye-labeled Nrf2-derived peptide based tracer displacement assay; type: protein assay
[2] = molecular target: T1, Keap1/Nrf2 (Homo sapiens); assay: Inhibition of Nrf2:Keap1 interaction (unknown origin) assessed as thermodynamic enthalpy changes by MR121 dye-labeled Nrf2-derived peptide based tracer displacement assay; type: protein assay

T1 sequence (Q14145 whole entry, looked up): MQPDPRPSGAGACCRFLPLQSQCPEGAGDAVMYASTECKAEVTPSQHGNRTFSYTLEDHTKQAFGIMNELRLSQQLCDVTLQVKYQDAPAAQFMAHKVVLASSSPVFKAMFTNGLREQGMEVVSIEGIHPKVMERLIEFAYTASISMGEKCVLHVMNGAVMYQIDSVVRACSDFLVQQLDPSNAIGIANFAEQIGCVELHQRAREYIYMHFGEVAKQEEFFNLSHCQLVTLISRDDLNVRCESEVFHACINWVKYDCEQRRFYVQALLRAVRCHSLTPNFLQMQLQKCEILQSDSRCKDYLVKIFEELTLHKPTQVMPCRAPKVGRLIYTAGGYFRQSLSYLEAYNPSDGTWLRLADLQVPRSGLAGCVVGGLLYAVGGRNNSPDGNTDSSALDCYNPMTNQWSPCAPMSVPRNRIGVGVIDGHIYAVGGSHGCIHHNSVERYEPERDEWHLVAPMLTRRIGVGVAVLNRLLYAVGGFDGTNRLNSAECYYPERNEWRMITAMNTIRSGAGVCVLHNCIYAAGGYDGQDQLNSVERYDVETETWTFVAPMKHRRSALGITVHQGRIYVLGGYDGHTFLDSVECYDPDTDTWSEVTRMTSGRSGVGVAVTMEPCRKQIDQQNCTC
T1 sequence (Q16236 whole entry, looked up): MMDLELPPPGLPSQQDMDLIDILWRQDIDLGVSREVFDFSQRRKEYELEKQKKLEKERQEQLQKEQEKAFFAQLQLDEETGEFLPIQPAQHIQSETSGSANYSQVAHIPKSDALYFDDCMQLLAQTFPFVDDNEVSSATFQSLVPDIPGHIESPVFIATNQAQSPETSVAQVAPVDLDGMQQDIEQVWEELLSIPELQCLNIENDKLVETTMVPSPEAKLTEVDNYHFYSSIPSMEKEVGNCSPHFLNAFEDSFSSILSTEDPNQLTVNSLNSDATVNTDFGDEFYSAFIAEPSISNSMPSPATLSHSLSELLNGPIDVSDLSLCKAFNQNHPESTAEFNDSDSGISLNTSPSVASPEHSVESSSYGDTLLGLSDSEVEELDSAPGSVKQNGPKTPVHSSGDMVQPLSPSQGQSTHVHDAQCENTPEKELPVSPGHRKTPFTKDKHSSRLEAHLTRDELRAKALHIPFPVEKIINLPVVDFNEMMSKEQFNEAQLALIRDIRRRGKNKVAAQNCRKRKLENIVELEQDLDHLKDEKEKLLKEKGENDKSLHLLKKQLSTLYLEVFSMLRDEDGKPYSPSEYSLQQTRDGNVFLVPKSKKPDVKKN

SMILES | Activity [1] | deltaG [2]
Cc1ccc(S(=O)(=O)C2CN=C(SCC(=O)Nc3ccccc3C(F)(F)F)NC2=O)c(C)c1 (centres undefined) | Active | -5.93 kcal/mol
COc1ccc(S(=O)(=O)Nc2ccc(NS(=O)(=O)c3ccc(OC)cc3)c3ccccc23)cc1 | Active | -7.84 kcal/mol
